Reference: patent US11912718B2, “Solid forms of a thienopyrimidinedione ACC inhibitor and methods for production thereof” (Gilead Apollo, LLC, priority 2016, dated 2024)
Values after ≈ are worked out from the molar mass of the structure shown. Values belong to the molecule of their own block, whether it stands above or below them.

Experiments:
[1] = test system: ACC2; conditions: enzyme isolated from rat, mouse, monkey and human; cited from earlier work
[2] = test system: ACC1; conditions: enzyme isolated from rat, mouse, monkey and human; cited from earlier work
[3] = Log P and Log D determination (potentiometric); format: physicochemical; conditions: octanol/water, pH 7.4
Description: Log P analysis was performed using a potentiometric (pH-metric) method. The sample was titrated in various ratios of octanol/water in two titrations covering the pH range from 1.9 to 12.0 at concentrations of 1.0 to 0.6 mM. The shift of the aqueous pKa in the presence of octanol was used to determine log P of the neutral and anionic species. From this information a lipophilicity profile was constructed, such that that log D at a given pH could be determined.

[4] = Competitive slurrying of crystal forms; format: physicochemical
[5] = Dynamic vapor sorption (DVS); format: physicochemical; conditions: for state or form of the material after the DVS experiment: post DVS, XRPD
Text: For DVS analysis as discussed in Example 8, approximately 10 milligrams of sample was placed into a mesh vapor sorption balance pan and loaded into a DVS-1 dynamic vapor sorption balance (Surface Measurement Systems). The sample was subjected to a ramping profile from 0-90% relative humidity (RH) at 10% increments, maintaining the sample at each step until a stable weight had been achieved (99.5% step completion). After completion of the sorption cycle, the sample was dried using the reverse procedure, lowering the RH to 0%. The weight change during the sorption/desorption cycles was plotted.
For Examples 2, 5, 7, 9, and 13 to 18, hygroscopicity was studied using dynamic vapor sorption (DVS, TA Q5000 SA, TA Instruments, New Castle, Del. or DVS, DVS Intrinsic, Surface Measurement Systems, London, UK). A sample (2-20 mg) was placed in an aluminum DVS pan and loaded on the sample side of the twin pan balance. The water sorption and desorption were studied as a function of relative humidity (RH) at 25° C. In 10% RH increments, the relative humidity was increased from 5% RH to 95% RH and then decreased back to 5%. […] Data analysis was performed using Universal Analysis 2000 Version 4.7A (TA Instruments, New Castle, Del.) for TA DVS runs and Microsoft Excel for SMS DVS runs.

[6] = Aqueous solubility; format: physicochemical
Description: Purity and concentration analyses were carried out using the following method: […]

[7] = biological target: ACC1 (Homo sapiens, UniProt Q13085); assay: Inhibition of ACC1 by metabolites of Compound 1; format: biochemical
[8] = Prolonged exposure to water (XRPD); format: physicochemical
[9] = Storage stability at 40° C. and 75% RH; format: physicochemical; conditions: 7 days at 40° C. and 75% RH
Description: 100 milligrams of Form IV of Compound 1, prepared according to the method of Example 5, was heated to 80° C. in an oven. Form VII was confirmed to be a desolvated form of Form IV, produced by drying the methanol solvate Form IV. […] Differential scanning calorimetry (DSC) results (FIG. 40) were consistent with thermogravimetric analysis. […] (peak at 141.4° C.), with the peak of the exotherm at 151.6° C. […] (peak at 195.0° C.). A smaller endotherm with a peak at 207.0° C. was likely to indicate formation of a higher melting crystalline form. […] The uptake between 40 and 70% RH could potentially be indicative of hydrate formation (tentatively assigned the name Form IX). […] NMR and IR data confirmed the structural integrity of Compound 1 present.

[10] = acetone, acetonitrile:water (10%), ethanol, ethyl acetate, ambient temperature and 60° C., XRPD and DSC

Structure (SMILES): O=C(c1c2ccccc2cc2ccccc12)N1CCC(N2CCC[C@@H](C(=O)N3CCOCC3)C2)CC1 [CP-640186]
IC50 [1]: ~60 nM | IC50 [2]: ~60 nM

Structure (SMILES): COc1ccccc1[C@H](Cn1c(=O)n(C(C)(C)C(=O)O)c(=O)c2c(C)c(-c3ncco3)sc21)OC1CCOCC1 [Form I]
logD [3]: 1.06 | relative thermodynamic stability ([4]; between 22-60° C.): more thermodynamically stable form | weight gain (moisture sorption) ([5]; at about 95% RH): ~0.45% | state or form of the material after the DVS experiment [5]: had not changed forms | solubility ([6]; aqueous medium, aqueous buffer, pH 5.5 and below): < 10 µg/mL

Structure (SMILES): COc1ccccc1[C@H](Cn1c(=O)n(C(C)(C)C(=O)O)c(=O)c2c(C)c(-c3ncco3)sc21)OC1CCOCC1 [Form VIII]
result of competitive slurrying with Form I ([4]; 1:1 ratio in 6:4 ethanol:water, room temperature, about two weeks, XRPD): conversion to Form I | result of competitive slurrying with Form I [4, 10]: conversion to Form I

The remaining lines, values ahead:

IC50 [7]: 5 nM
Structure (SMILES): COc1ccccc1[C@H](Cn1c(=O)n(C(C)(C)C(=O)OC2OC(C(=O)O)C(O)C(O)C2O)c(=O)c2c(C)c(-c3ncco3)sc21)OC1CCOCC1 (stereo partly drawn) [M+glucuronide conjugate]

IC50 [7]: 22 nM
Structure (SMILES): Cc1c(-c2ncco2)sc2c1c(=O)n(C(C)(C)C(=O)O)c(=O)n2C[C@H](OC1CCOCC1)c1ccccc1O [M-CH3 metabolite]

form change on prolonged exposure to water [8]: conversion of Form VII to Form I | chemical and physical stability on storage [9]: chemically and physically stable | purity after storage [9]: 99.85% | result of competitive slurrying with Form I [4, 10]: conversion to Form I | water uptake (DVS) ([5]; at 90% RH): > 4% | state or form of the material after the DVS experiment [5]: no change in form | solubility ([6]; water): 109 µg/mL (≈ 191 µM)
Structure (SMILES): COc1ccccc1[C@H](Cn1c(=O)n(C(C)(C)C(=O)O)c(=O)c2c(C)c(-c3ncco3)sc21)OC1CCOCC1 [Form VII]
